# Assay results as given in US20160374944A1, “COMPOSITIONS AND METHODS FOR TREATING AND PREVENTING CANCER BY TARGETING AND INHIBITING CANCER STEM CELLS” (priority 2011, published 2016).
# Tests used:
# Pancreatic CSCs [1] = experiment: spheroid formation and cell viability in spheroids (trypan blue); format: cell-based, human; settings: for cell viability in spheroids: EGCG 0-60 μM with or without quercetin 20 μM
# Description: (A) Pancreatic CSCs were grown in six-well ultralow attachment plates (Corning Inc., Corning, N.Y.) at a density of 1,000 cells/ml in DMEM supplemented with 1% N2 Supplement (Invitrogen), 2% B27 Supplement (Invitrogen), 20 ng/ml human platelet growth factor (Sigma-Aldrich), 100 ng/ml EGF (Invitrogen) and 1% antibiotic-antimycotic (Invitrogen) at 37° C. in a humidified atmosphere of 95% air and 5% CO2 and treated with rottlerin (0-2 μM) for 7 days to obtain primary spheroids. At the end of incubation period, spheroids were collected, reseeded and treated with rottlerin for another week to obtain secondary spheroids. (B) Cell viability in spheroids was measured by trypan blue assay at the end of 7 and 14 days from the above experiment.
# (§1) (A) Pancreatic CSCs were seeded in suspension and treated with EGCG (0-60 μM) for 7 days. Pictures of spheroids formed in suspension were taken by a microscope. (B) Pancreatic CSCs were seeded in suspension and treated with EGCG (0-60 μM) for 7 days. At the end of incubation period, spheroids were collected, and dissociated with Accutase (Innovative Cell Technologies, Inc.). For secondary spheroids, cells were reseeded and treated with EGCG (0-60 μM) for 7 days. Cell viability was measured by trypan blue assay. […] Pancreatic CSCs were seeded in soft agar and treated with various doses of EGCG and incubated at […] for 21 days. At the end of incubation period, colonies were counted.
# (A) Pancreatic CSCs were treated with EGCG (0-60 μM) for 36 h. At the end of incubation period, cells were harvested and the expression of Nanog, Sox-2, c-Myc and Oct-4 was measured by the q-RT-PCR. […] Pancreatic CSCs were transduced with either scrambled shRNA or Nanog shRNA expressing lentiviral vector (pLKO.1), and cell lysates were collected and western blot analysis was performed using anti-Nanog antibody (data not shown). CSC/scrambled and CSC/Nanog shRNA were seeded as described above and treated with EGCG (0-60 μM). After 7 days, spheroids were collected and cell suspensions were prepared and viable cells were counted by trypan blue assay.
# (§2) (A) Effects of EGCG and quercetin on spheroid and colony formation. […] CSCs were seeded in suspension and treated with EGCG (0-60 μM) with or without quercetin (20 μM) for 7 days. At the end of incubation period, all the spheroids were collected and resuspended. Cell viability was measured by trypan blue assay. […] Pancreatic CSCs were seeded in soft agar and treated with various doses of EGCG (0-60 μM) with or without quercetin (20 μM) and incubated at […] for 21 days. At the end of incubation period, colonies were counted. […] (B) Effects of EGCG and quercetin on invasion and migration. Upper panel, Matrigel invasion assay. CSCs were plated onto the Matrigel-coated membrane in the top chamber of the transwell and treated with EGCG (0-60 μM) with or without quercetin (20 μM) for 48 hrs. Cells invaded to the lower chambered were fixed with methanol, stained with crystal violet and counted. […] Lower panel, Transwell migration assay. Pancreatic CSCs were plated in the top chamber of the transwell and treated with EGCG (0-60 μM) with or without quercetin (20 μM) for 48 hrs. Cells migrated to the lower chambered were fixed with methanol, stained with crystal violet and counted. […] CSCs were seeded in suspension and treated with EGCG (0-60 μM) with or without quercetin (20 μM) for 7 days. At the end of incubation period, all the spheroids were collected.
# Pancreatic CSCs [2] = experiment: colony formation in soft agar; format: cell-based, human; settings: 21 days
# Description: as §1, §2
# At the end of incubation period, all the spheroids were collected and resuspended. Cell viability was measured by trypan blue assay. […] At the end of incubation period, colonies were counted.
# Pancreatic CSCs [3] = experiment: cell viability, trypan blue, Vi-CELL analyzer; format: cell-based, human; settings: 3 days
# Description: Pancreatic CSCs were treated with resveratrol (0-20 μM), curcumin (0-20 μM), honokiol (0-20 μM) and diallyl trisulphide (0-20 μM) for 3 days, and cell viability was measured by staining with trypan blue using Vi-CELL analyzer (Beckman Counter).
# Pancreatic CSCs were treated with sulforaphane (0-20 μM), rottlerin (0-2 μM), EGCG (0-60 μM) and embelin (0-5 μM) for 3 days, and cell viability was measured by staining with trypan blue using Vi-CELL analyzer (Beckman Counter).
# (A) Pancreatic CSCs were treated with SAHA (3 and 5 μM) and 5-Aza-dc (2 and 4 μM) and cell viability was measured at 48 h by staining with trypan blue using Vi-CELL analyzer (Beckman Counter). (B) Pancreatic CSCs were untreated (a) or treated with SAHA (b) or 5-Aza-dC (c) for 48 h, and apoptosis was measured by staining with annexin-PI using Accuri Flow Cytometer. (C) Caspase-3/7 activity was measured in pancreatic CSCs treated with SAHA (0.5 and 2 μM) or 5-Aza-dC (1 and 3 μM) for 25 h.
# Pancreatic CSCs were treated with resveratrol (0-20 μM), curcumin (0-20 μM), honokiol (0-20 μM), and diallyl trisulphide (0-20 μM) for 3 days and cell viability was measured by staining with trypan blue using Vi-CELL analyzer. The results of those studies are illustrated in FIG. 27.
# Pancreatic CSCs were treated with sulforaphane (0-20 μM), rottlerin (0-2 μM), EGCG (0-60 μM), and embelin (0-5 μM) for 3 days and cell viability was measured by staining with trypan blue using Vi-CELL analyzer. The results of those studies are illustrated in FIG. 28.
# Pancreatic CSCs were treated with SAHA […] Vorinostat (3 and 5 μM) and 5-Aza-2′-deoxycytidine (5-Aza-dC, 2 and 4 μM) and cell viability was measured at 48 hours by staining with trypan blue using Vi-CELL analyzer. The results of those studies are illustrated in FIG. 31A.
# Brain CSCs = experiment: cell viability, trypan blue, Vi-CELL analyzer; format: cell-based; settings: 48 h
# Description: Brain CSCs were treated with resveratrol (0-20 μM), curcumin (0-20 μM), honokiol (0-20 μM) and diallyl trisulphide (0-10 μM) for 3 days, and cell viability was measured by staining with trypan blue using Vi-CELL analyzer (Beckman Counter).
# Brain CSCs were treated with sulforaphane (0-20 μM), rottlerin (0-1 μM), EGCG (0-40 μM) and embelin (0-5 μM) for 48 h, and cell viability was measured by staining with trypan blue using Vi-CELL analyzer (Beckman Counter).
# Brain CSCs were treated with resveratrol (0-20 μM), curcumin (0-20 μM) honokiol (0-20 μM), and diallyl trisulphide (0-10 μM) for 3 days and cell viability was measured by staining with trypan blue using Vi-CELL analyzer. The results of those studies are illustrated in FIG. 23.
# Brain CSCs were treated with sulforaphane (0-20 μM), rottlerin (0-1 μM), EGCG (0-40 μM), and embelin (0-5 μM) for 48 hours and cell viability was measured by staining with trypan blue using Vi-CELL analyzer. The results of those studies are illustrated in FIG. 24.
# [4] = EGCG 0-60 μM with or without quercetin 20 μM
Structure (SMILES),"CSC viability in spheroids (Pancreatic CSCs [1]; CSCs transduced with Nanog shRNA, EGCG 0-60 μM, 7 days)","CSC viability in spheroids (Pancreatic CSCs [1]; CSCs transduced with scrambled shRNA, EGCG 0-60 μM, 7 days)",cell viability in spheroids (Pancreatic CSCs [1]; 7 days),"growth (size) of spheroids in suspension (Pancreatic CSCs [1]; EGCG 0-60 μM, 7 days)","CSC viability in primary and secondary spheroids (Pancreatic CSCs [1]; EGCG 0-60 μM, 7 days each, trypan blue)",colony formation (Pancreatic CSCs [2]; [4]),growth of colonies (Pancreatic CSCs [2]; EGCG),cell viability (Pancreatic CSCs [3]),cell viability (Brain CSCs),colony formation (Pancreatic CSCs [2]; SFN with or without quercetin),"size of primary and secondary spheroids in suspension (Pancreatic CSCs [1]; rottlerin 0-2 μM, 7 and 14 days)","cell viability of spheroids (Pancreatic CSCs [1]; rottlerin 0-2 μM, 7 and 14 days, trypan blue)"
"O=C(O[C@@H]1Cc2c(O)cc(O)cc2O[C@@H]1c1cc(O)c(O)c(O)c1)c1cc(O)c(O)c(O)c1 [EGCG, epigallocatechin gallate]",further enhanced the antiproliferative effects,inhibited CSC's viability in spheroids transduced with Nanog-scrambled shRNA in a dose-dependent manner,"inhibited cell viability in spheroids, colony formation, migration and invasion by CSCs in a dose-dependent manner",inhibited the growth (size) of spheroids in suspension in a dose dependent manner,inhibited CSC's viability in primary and secondary spheroids in a dose-dependent manner,"inhibited cell viability in spheroids, colony formation, migration and invasion by CSCs in a dose-dependent manner",inhibited the growth of colonies in a dose-dependent manner,inhibit cell viability,inhibit cell viability,,,
O=c1c(O)c(-c2ccc(O)c(O)c2)oc2cc(O)cc(O)c12 [quercetin],,,effective alone,,,effective alone,,,,effective alone,,
CC(=O)c1c(O)c(C)c(O)c(Cc2c(O)c3c(c(C(=O)/C=C/c4ccccc4)c2O)OC(C)(C)C=C3)c1O [rottlerin],,,,,,,,inhibit cell viability,inhibit cell viability,,inhibited the size,inhibited
C[S+]([O-])CCCCN=C=S (stereo not shown) [sulforaphane],,,,,,,,inhibit cell viability,inhibit cell viability,inhibited the cell viability and colony formation of pancreatic CSCs in a dose-dependent manner,,
